Test results reported in patent US20110009497A1, “DRUG-CONTAINING COMPOSITION” (FUJIFILM CORPORATION, priority 2008, published 2011).

Tests used:
[1] = target: T1, human albumin (His-tag fusion protein) (Homo sapiens, UniProt P02768); experiment: Elution by human serum of vitamin D3 bound to His-tag fusion albumin immobilised on Ni-column, HPLC quantification (Comparative Example 1); assay type: binding; settings: carrier His-tag fusion albumin on Ni-column; human serum 20 ml at 0.1 ml/min, then buffer
T1 construct: made in house; host or cells: Escherichia coli BL21 (DE3) Codon-plus, vector pQE30 Xa (QIAGEN)
Method: (§1) A human albumin sequence was expressed with the use of Escherichia coli BL21 (DE3) Codon-plus as a His-tag fusion protein (using a vector (pQE30 Xa; QIAGEN)). For culture, an LB (Luria-Bertani) medium containing 100 μg/ml ampicillin was used. Preculture was carried out with the use of a 300-mL LB medium contained in a 500-mL Erlenmeyer flask at 37° C. Then, for main culture, 30 mL of the preculture solution was added to a 1.5-L LB medium (containing 100 μg/ml ampicillin) contained in a 3-L baffled Erlenmeyer flask and subjected to shake culture at 37° C. so as to result in 0.6 OD600. Thereafter, IPTG was added thereto to a final concentration of 0.5 mM for expression induction, followed by overnight shake culture at 30° C. Subsequently, cells were collected by centrifugation and washed. The obtained bacterial cells were suspended in 200 mM NaCl, 50 mM sodium phosphate buffer, and 10 mM imidazole (pH 8.0), followed by ultrasonic disintegration for 5 minutes and centrifugation at 44,200×g for 30 minutes. Thus, the supernatant was obtained. The obtained supernatant was introduced at a flow rate of 0.1 ml/min into an Ni-column (Ni-NTA His-Bind Resin: Novagen; column volume: 50 ml) that had been preliminarily equilibrated with a solution A (300 mM NaCl, 50 mM sodium phosphate buffer, 20 mM imidazole, pH 8.0) for immobilization. […]

[2] = target: T2, human vitamin D3 receptor (His-tag fusion protein) (Homo sapiens, UniProt P11473); experiment: Elution by human serum of vitamin D3 bound to His-tag fusion vitamin D3 receptor protein immobilised on Ni-column, HPLC quantification; assay type: binding; settings: carrier His-tag fusion vitamin D3 receptor protein on Ni-column; 20 ml human serum then 10 ml solution A at 0.1 ml/min
T2 construct: made in house; host or cells: Escherichia coli BL21 (DE3) Codon-plus, vector pQE30 Xa (QIAGEN)
T2 sequence (P11473 1-427): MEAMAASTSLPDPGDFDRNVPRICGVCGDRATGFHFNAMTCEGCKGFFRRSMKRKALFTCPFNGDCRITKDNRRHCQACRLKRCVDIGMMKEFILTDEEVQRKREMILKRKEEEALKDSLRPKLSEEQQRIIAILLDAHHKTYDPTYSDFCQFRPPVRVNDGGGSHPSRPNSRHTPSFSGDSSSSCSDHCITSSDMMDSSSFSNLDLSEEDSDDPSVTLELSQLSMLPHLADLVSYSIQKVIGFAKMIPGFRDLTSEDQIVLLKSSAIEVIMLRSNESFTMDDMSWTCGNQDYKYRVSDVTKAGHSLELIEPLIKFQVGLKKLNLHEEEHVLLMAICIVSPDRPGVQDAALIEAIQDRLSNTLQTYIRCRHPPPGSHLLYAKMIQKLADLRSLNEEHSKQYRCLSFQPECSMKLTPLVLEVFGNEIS
Method: as §1, with “For” for “A human albumin sequence was expressed with the use of Escherichia coli BL21 (DE3) Codon-plus as a His-tag fusion protein (using a vector (pQE30 Xa; QIAGEN)). For”

[3] = system: osteoporosis model rats (ovariectomized aged rats); experiment: Bone regeneration in osteoporosis model rats (ovariectomized aged rats); assay type: in vivo, rat; settings: calcitriol dissolved with vitamin D3 receptor carrier protein; i.v. 3 times per week, 0.3 μg/kg; four months later
Method: The resultant was allowed to stand still overnight at 22° C. and eluted with a solution A as in the case of Example 1. The eluate was introduced into a benzamidine column (GE Healthcare Bioscience; HiTrap Benzamidine FF (high sub) column) in a general purification step, during which a high-purity vitamin D3 receptor protein was purified. Accordingly, a drug carrier was obtained.
The obtained liquid was administered 3 times per week via intravenous injection to osteoporosis model rats (ovariectomized aged rats) such that the calcitriol concentration was maintained at 0.3 μg/kg.

T1 sequence (P02768 25-609): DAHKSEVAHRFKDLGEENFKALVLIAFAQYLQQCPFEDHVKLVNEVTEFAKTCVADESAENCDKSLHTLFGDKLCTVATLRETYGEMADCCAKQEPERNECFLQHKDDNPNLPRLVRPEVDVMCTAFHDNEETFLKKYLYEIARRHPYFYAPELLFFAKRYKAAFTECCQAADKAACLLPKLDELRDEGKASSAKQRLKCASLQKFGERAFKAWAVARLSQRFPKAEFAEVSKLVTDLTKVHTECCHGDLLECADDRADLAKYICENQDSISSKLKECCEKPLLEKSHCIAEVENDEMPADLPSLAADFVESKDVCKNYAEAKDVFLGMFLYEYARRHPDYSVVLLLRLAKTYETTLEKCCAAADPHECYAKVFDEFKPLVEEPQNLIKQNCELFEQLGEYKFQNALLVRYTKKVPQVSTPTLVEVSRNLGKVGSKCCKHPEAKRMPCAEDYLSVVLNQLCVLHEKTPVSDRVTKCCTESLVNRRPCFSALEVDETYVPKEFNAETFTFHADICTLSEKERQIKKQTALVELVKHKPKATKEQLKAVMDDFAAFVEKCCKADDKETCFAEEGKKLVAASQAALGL

## C=C1CC[C@H](O)C/C1=C/C=C1\CCC[C@]2(C)[C@@H]([C@H](C)CCCC(C)C)CC[C@@H]12 [Vitamin D3, vitamin D3]
[1]
  amount of vitamin D3 eluted from the column, of the total amount of bound vitamin: approximately 70%
[2]
  amount of vitamin D3 eluted from the column, of the total amount of bound vitamin: approximately 5%

## C=C1/C(=C\C=C2/CCC[C@]3(C)[C@@H]([C@H](C)CCCC(C)(C)O)CC[C@@H]23)C[C@@H](O)C[C@@H]1O [calcitriol, 1α,25-dihydroxyvitamin D3]
[3]
  induction of bone regeneration: induction of bone regeneration in the rats was confirmed
